Reference: ChEMBL document CHEMBL3400064, “Synthesis and biological evaluation of 2-arylbenzimidazoles targeting Leishmania donovani” (Bioorg Med Chem Lett, 2015)

Key:
Leishmania donovani [1] = assay: Antileishmanial activity against axenic amastigote Leishmania donovani MHOM/SD/1962/1S-Cl2d assessed as inhibition of parasite growth after 24 hrs at 50 uM by alamarBlue assay; format: functional
Leishmania donovani [2] = assay: Antileishmanial activity against axenic amastigote Leishmania donovani MHOM/SD/1962/1S-Cl2d assessed as inhibition of parasite growth after 24 hrs at 15 uM by alamarBlue assay; format: functional
Leishmania donovani [3] = assay: Antileishmanial activity against axenic amastigote Leishmania donovani MHOM/SD/1962/1S-Cl2d assessed as inhibition of parasite growth after 24 hrs at 5 uM by alamarBlue assay; format: functional
[4] = Cytotoxicity against mouse NIH/3T3 cells assessed as viability at 15 uM after 48 hrs by alamarBlue assay; format: cell-based, NIH3T3; settings: read-out: Activity
Leishmania donovani [5] = assay: Antileishmanial activity against Leishmania donovani MHOM/SD/1962/1S-Cl2d infected THP1 cells assessed as inhibition of intracellular […] amastigote at 5 uM after 48 hrs at 50 uM by Bright-Glo luciferase assay; format: functional, THP-1
[6] = Cytotoxicity against mouse NIH/3T3 cells assessed as viability after 48 hrs by alamarBlue assay; format: cell-based; settings: NIH3T3, 48 h
Leishmania donovani [7] = assay: Antileishmanial activity against Leishmania donovani MHOM/SD/1962/1S-Cl2d infected THP1 cells assessed as inhibition of intracellular […] amastigote after 48 hrs at 50 uM by Bright-Glo luciferase assay; format: functional, organism-based; settings: THP-1, 48 h

Row | SMILES | inhibition at 50 µM (Leishmania donovani [1]) [%] | inhibition at 15 µM (Leishmania donovani [2]) [%] | inhibition at 5 µM (Leishmania donovani [3]) [%] | viability at 48 h, 15 µM [4] [%] | inhibition (INH) (Leishmania donovani [5]) [%] | IC50 [6] [µM] | IC50 (Leishmania donovani [7]) [µM]
1 | CC(=O)Nc1cccc(-c2nc3ccccc3[nH]2)c1 | 56 | 21 | 20 |  |  |  | 
2 | Cn1cccc1C(=O)Nc1cccc(-c2nc3ccccc3[nH]2)c1 | 33 |  |  |  |  |  | 
3 | O=C(Nc1cccc(-c2nc3ccccc3[nH]2)c1)c1cscn1 | 45 |  |  |  |  |  | 
4 | Cc1cccc(C(=O)Nc2cccc(-c3nc4ccccc4[nH]3)c2)c1 | 59 | 52 | 26 |  |  |  | 
5 | O=C(Nc1cccc(-c2nc3ccccc3[nH]2)c1)c1cccc(C(F)(F)F)c1 | 83 | 68 | 17 |  |  |  | 
6 | O=C(Nc1cccc(-c2nc3ccccc3[nH]2)c1)c1cccc(Cl)c1 | 57 | 60 | 26 |  |  |  | 
7 | COc1cccc(C(=O)Nc2cccc(-c3nc4ccccc4[nH]3)c2)c1 | 49 |  |  |  |  |  | 
8 | COC(=O)c1cccc(C(=O)Nc2cccc(-c3nc4ccccc4[nH]3)c2)c1 | 100 | 74 | 18 |  |  |  | 
9 | Cc1ccccc1C(=O)Nc1cccc(-c2nc3ccccc3[nH]2)c1 | 55 | 47 | 22 |  |  |  | 
10 | O=C(Nc1cccc(-c2nc3ccccc3[nH]2)c1)c1ccccc1C(F)(F)F | 82 | 73 | 22 |  |  |  | 
11 | COc1ccccc1C(=O)Nc1cccc(-c2nc3ccccc3[nH]2)c1 | 75 | 27 | 23 |  |  |  | 
12 | CC(C)(C)C(=O)Nc1cccc(-c2nc3ccccc3[nH]2)c1 | 54 | 44 | 27 |  |  |  | 
13 | O=C(Nc1cccc(-c2nc3ccccc3[nH]2)c1)C1CCCCC1 | 68 | 61 | 41 | 23.8 | 19.8 | 22.2 | 8.8
14 | Cc1ccc2[nH]c(-c3cccc(NC(=O)c4cccs4)c3)nc2c1 | 77 | 50 | 36 | 14.1 | 4.1 | 16.7 | 10.5
15 | O=C(Nc1cccc(-c2nc3cc(Cl)ccc3[nH]2)c1)c1cccs1 | 80 | 57 | 11 |  |  |  | 
16 | Cc1cccc2[nH]c(-c3cccc(NC(=O)c4cccs4)c3)nc12 | 83 | 56 | 32 | 5.3 | 46.4 | > 300 | 17.8
17 | Cc1c(NC(=O)c2cccs2)cccc1-c1nc2ccccc2[nH]1 | 31 |  |  |  |  |  | 
18 | COc1ccc(-c2nc3ccccc3[nH]2)cc1NC(=O)c1cccs1 | 38 |  |  |  |  |  | 
19 | Cn1c(-c2cccc(NC(=O)c3cccs3)c2)nc2ccccc21 | 74 | 56 | 30 | -12.9 | 27.7 | 61.3 | 22.1

Row | SMILES | inhibition at 50 µM (Leishmania donovani [1]) [%] | inhibition at 15 µM (Leishmania donovani [2]) [%] | inhibition at 5 µM (Leishmania donovani [3]) [%] | viability at 48 h, 15 µM [4] [%] | inhibition (INH) (Leishmania donovani [5]) [%] | IC50 [6] [µM] | IC50 (Leishmania donovani [7]) [µM]
20 | O=S(=O)(Nc1cccc(-c2nc3ccccc3[nH]2)c1)c1ccccc1 | 52 | 30 | 0 |  |  |  | 
21 | O=C(Nc1cccc(-c2nc3ccccc3o2)c1)c1cccs1 | 34 |  |  |  |  |  | 
22 | O=C(Nc1ccc(-c2nc3ccccc3[nH]2)cc1)c1cccs1 | 22 |  |  |  |  |  | 
23 | O=C(Nc1cccc(-c2nc3ccccc3[nH]2)c1)c1ccsc1 | 83 | 67 | 17 |  |  |  | 
24 | O=C(Cc1cccs1)Nc1cccc(-c2nc3ccccc3[nH]2)c1 | 49 |  |  |  |  |  | 
25 | O=C(Nc1cccc(-c2nc3ccccc3[nH]2)c1)c1ccco1 | 43 |  |  |  |  |  | 
26 | O=C(Nc1cccc(-c2nc3ccccc3[nH]2)c1)c1ccoc1 | 80 | 39 | 19 |  |  |  | 
27 | O=C(Nc1cccc(-c2nc3ccccc3[nH]2)c1)c1ccccn1 | 57 | 35 | 19 |  |  |  | 
28 | O=C(Nc1cccc(-c2nc3ccccc3[nH]2)c1)c1ccccc1F | 74 | 37 | 24 |  |  |  | 
29 | O=C(Nc1cccc(-c2nc3ccccc3[nH]2)c1)c1ccccc1 | 56 | 43 | 17 |  |  |  | 
30 | CCCCC(=O)Nc1cccc(-c2nc3ccccc3[nH]2)c1 | 82 | 67 | 15 |  |  |  | 
31 | O=C(Nc1cccc(-c2nc3ccccc3[nH]2)c1)C1CCCC1 | 87 | 76 | 22 |  |  |  | 
32 | O=C(Nc1ccccc1)Nc1cccc(-c2nc3ccccc3[nH]2)c1 | 84 | 73 | 13 |  |  |  | 
33 | O=C(Nc1cccc(-c2nc3ccccc3[nH]2)c1)NC1CCCCC1 | 94 | 90 | 24 |  |  |  | 
34 | O=C(Nc1ccccc1)Nc1ccccc1-c1nc2ccccc2[nH]1 | 67 | 16 | 12 |  |  |  | 
35 | O=C(Nc1ccccc1-c1nc2ccccc2[nH]1)NC1CCCCC1 | 88 | 65 | 36 | -4.4 | 22.2 | 42.2 | 7.6
36 | O=C(Nc1ccccc1)c1cccc(-c2nc3ccccc3[nH]2)c1 | 87 | 57 | 8 |  |  |  | 
37 | O=C(Nc1ccccc1-c1nc2ccccc2[nH]1)c1cccs1 | 51 | 26 | 26 |  |  |  | 
38 | O=C(Nc1cccc(-c2cc3ccccc3[nH]2)c1)c1cccs1 | 86 | 33 | 16 |  |  |  | 

Row | SMILES | inhibition at 50 µM (Leishmania donovani [1]) [%] | inhibition at 15 µM (Leishmania donovani [2]) [%] | inhibition at 5 µM (Leishmania donovani [3]) [%] | viability at 48 h, 15 µM [4] [%] | inhibition (INH) (Leishmania donovani [5]) [%] | IC50 [6] [µM] | IC50 (Leishmania donovani [7]) [µM]
39 | CCn1c(-c2cccc(NC(=O)c3cccs3)c2)nc2ccccc21 | 87 | 81 | 24 |  |  |  | 
40 | CCCn1c(-c2cccc(NC(=O)c3cccs3)c2)nc2ccccc21 | 86 | 70 | 25 |  |  |  | 
41 | CN(C(=O)c1cccs1)c1cccc(-c2nc3ccccc3[nH]2)c1 | 40 | 21 | 3 |  |  |  | 
42 | O=C(Cc1cccs1)Nc1cccc(-c2ncc[nH]2)c1 | 0 |  |  |  |  |  | 
43 | CCc1ccccc1C(=O)Nc1cccc(-c2nc3ccccc3[nH]2)c1 | 88 | 52 | 21 |  |  |  | 
44 | O=C(Nc1cccc(-c2nc3ccccc3[nH]2)c1)c1ccccc1Cl | 79 | 55 | 23 |  |  |  | 
45 | O=C(O)c1cccc(C(=O)Nc2cccc(-c3nc4ccccc4[nH]3)c2)c1 | 0 |  |  |  |  |  | 
46 | COc1ccc(C(=O)Nc2cccc(-c3nc4ccccc4[nH]3)c2)cc1 | 64 | 52 | 35 | 54.1 |  |  | 
47 | O=C(Nc1cccc(-c2nc3ccccc3[nH]2)c1)c1ccc(F)cc1 | 69 | 50 | 32 | -11.9 | 16 | 15.4 | 23.4
48 | O=C(Nc1cccc(-c2nc3ccccc3[nH]2)c1)c1ccc(Cl)cc1 | 63 | 41 | 27 |  |  |  | 
49 | O=C(Nc1cccc(-c2nc3ccccc3[nH]2)c1)c1ccc(-c2ccccc2)cc1 | 96 | 80 | 41 | 88.7 |  |  | 
50 | Cc1cc(C)cc(C(=O)Nc2cccc(-c3nc4ccccc4[nH]3)c2)c1 | 88 | 56 | 22 |  |  |  | 
51 | Cc1ccc(C)c(C(=O)Nc2cccc(-c3nc4ccccc4[nH]3)c2)c1 | 78 | 28 | 15 |  |  |  | 
52 | COc1cc(OC)cc(C(=O)Nc2cccc(-c3nc4ccccc4[nH]3)c2)c1 | 83 | 58 | 32 |  |  |  | 
53 | O=C(Nc1cccc(-c2nc3ccccc3[nH]2)c1)c1cc(Cl)cc(Cl)c1 | 97 | 44 | 28 |  |  |  | 
54 | O=C(Nc1cccc(-c2nc3ccccc3[nH]2)c1)c1cc(Br)cc(Br)c1 | 72 | 55 | 29 |  |  |  | 
55 | O=C(Nc1cccc(-c2nc3ccccc3[nH]2)c1)c1cccs1 | 66 | 48 | 39 | -0.6 | 21.7 | 15 | 25.1
56 | Cc1ccc(C(=O)Nc2cccc(-c3nc4ccccc4[nH]3)c2)cc1 | 82 | 71 | 23 |  |  |  | 
